# Data: patent publication US20060121499A1, “Methods of identifying glucocorticoids without the detrimental side effects of bone loss” (priority 2004, published 2006)
# Starred links: 1 amine or outer side, 2 acyl side, 3 side chain; linkers in the order of their positions; H or OH if unused. Positions of bridges follow the written chain, without caps; N, C: chain ends. Non-standard residues stand in square brackets, D forms with d. Residues, ends and D or L forms follow the SMILES beside them. Chains are numbered I, II in the order given. No end group written: not given here. Actinocin(9to1) = Cc1c2oc3c(C)ccc(C(=O)[*:1])c3nc-2c(C(=O)[*:2])c(N)c1=O; NMeV = CN[C@H](C(=O)O)C(C)C; Sar = CNCC(=O)O
# Key:
# MLO-Y4 osteocytic cells [1] = experiment: Quantification of apoptotic cells (nuclear morphology, nGFP) in MLO-Y4 osteocytic cells; assay type: cell-based, murine; settings: for effect on dexamethasone (glucocorticoid)-induced apoptosis: inhibitor added 30 minute before dexamethasone 10^−6 M, 6 hour treatment
# Procedure: The murine long bone-derived osteocytic cell line MLO-Y4 was kindly provided by Dr. Lynda Bonewald (University of Missouri-Kansas City, Kansas City, Mo.). Cells were cultured in phenol red-free AMEM supplemented with 2.5% FBS, 2.5% bovine calf serum, 100 U/ml penicillin and 100 μg/ml streptomycin. Cells were plated at 1-2×10^4 cells/cm^2 on collagen type I (Sigma Chemical Co., St. Louis, Mo.) coated plates, as described previously (Kato,Y. et al., J. Bone Min.Res., 12:2014-2023 (1997)).
# MLO-Y4 cells stably expressing nuclear green fluorescent protein (nGFP) were obtained using the retroviral vector containing the nGFP, provided by Dr. Charles O'Brien (University of Arkansas for Medical Sciences, Little Rock, Ark.). The SV40 large T antigen nuclear localization sequence (Kalderon,D., et al., Cell, 39:499-509 (1984)) was attached to the carboxy-terminus of the cDNA construct encoding nGFP and subcloned into the pLXSN retroviral vector (Clontech, Palo Alto, Calif.). The plasmid harboring the retroviral construct was transiently transfected into the packaging cell line Phoenix Eco (Grignani, F. et al., Cancer Res. 58:14-19 (1998)) using SuperFect (Qiagen, Santa Clarita, Calif.). Supernatants containing retroviral particles were collected 24-48 h after transfection, and used immediately to infect cell cultures. Subconfluent MLO-Y4 osteocytic cells were exposed to viral supernatants in the presence of 8 μg/ml polybrene for 8 h and then incubated in fresh culture medium for 16 hours. Subsequently, cells were exposed to the supernatants containing the viral particles once more before being trypsinized and plated at low density. Transduced cells were selected by culturing them in the presence of 400 μg/ml of geneticin (G418, Sigma Chemical Co., St. Louis, Mo.) for three weeks (Plotkin,L. I., et al., J. Clin. Invest. 104:1363-1374 (1999)).
# Apoptosis was induced in semiconfluent cultures by treatment for the indicated times with the glucocorticoid, dexamethasone (10^−6 M, Sigma Chemical Co., St. Louis, Mo.) or with etoposide (50 μM, Sigma Chemical Co., St. Louis, Mo.). Inhibitors were added 30 minute before the addition of the pro-apoptotic agent at the following concentrations: the RNA synthesis inhibitor actinomycin D (2×10^−6M, Sigma Chemical Co., St. Louis, Mo.), the protein synthesis inhibitor cycloheximide (10^−6 M, Sigma Chemical Co., St. Louis, Mo.), the MEK inhibitor PD98059 (50 μM, New England Biolabs, Beverly, Mass.), the Src inhibitor PP1 (5 μM, BioSource International, Camarillo, Calif.), the p38 inhibitor SB203580 (10^−4 M, Sigma Chemical Co., St. Louis, Mo.), the P13K inhibitor wortmannin (30 nM, Sigma Chemical Co., St. Louis, Mo.), the JNK inhibitor SP600125 (3 μM, EMD Biosciences, Inc, San Diego, Calif.) or the caspase-3 inhibitor Asp-Glu-Val-Asp-aldehide (DEVD-CHO) (50 nM, Biomol Research Lab., Inc., Plymouth Meeting, Pa.).
# Following the treatment with the pro-apoptotic agents, cells were fixed for 8 minutes with neutral buffer formalin and stored at 4° C. until analyzed.
# Cells were transiently transfected using Lipofectamine Plus (Gibco BRL, Gaithersburg, Md.) as previously described (Plotkin,L. I. et. al., J. Biol.Chem. 277:8648-8657 (2002) and Kousteni, S. et al., Cell, 104:719-730 (2001)). Briefly, cells were cultured in the absence of serum or antibiotics for 3 hours in the presence of 20 μl/ml Plus reagent and 10 μl/ml Lipofectamine together with […] of each of the following DNA constructs: pCDNA3 vector (obtained from Clontech, Palo Alto, Calif.), wild type FAK (provided by Dr. Sandro Aruffo, Bristol-Myers Squibb Pharmaceutical Research Institute, Princeton, N.J. (Chan,P. Y. et al., Methods Mol Biol. 2000.;99.(1.):109.-25. 269:20567-20574 (1994)), or wild type Pyk2, kinase deficient Pyk2 mutant or autophosphorylation deficient Pyk2 mutant (provided by Dr. Wen-Cheng Xiong, University of Alabama at Birmingham, Birmingham, Ala. (Xiong,W. and Parsons,J. T., J Cell Biol 139:529-53(1997)).
# MLO-Y4 osteocytic cells [2] = experiment: Quantification of cell detachment (number of cytoplasmic processes) in MLO-Y4 cells; assay type: cell-based, murine
# Procedure: Apoptosis was induced in semiconfluent cultures by treatment for the indicated times with the glucocorticoid, dexamethasone (10^−6 M, Sigma Chemical Co., St. Louis, Mo.) or with etoposide (50 μM, Sigma Chemical Co., St. Louis, Mo.). […]
# The effect of dexamethasone or etoposide on cell detachment was quantified by enumerating the number of cytoplasmic processes of MLO-Y4 cells expressing GFP. […]
# Apoptosis and cell attachment were determined in the same cultures by examining nuclear morphology (FIG. 2A) and quantifying the number of cytoplasmic processes (FIG. 2B), respectively. Apoptosis was determined by examining nuclear fragmentation and chromatin condensation and cell detachment by quantifying the number of cytoplasmic processes in the same cells. […]
Molecule,effect on dexamethasone (glucocorticoid)-induced apoptosis (MLO-Y4 osteocytic cells [1]),further results
[Gd] [gadolinium],abolished,
"Cc1c2oc3c(C)ccc(C(=O)N[C@@H]4C(=O)N[C@H](C(C)C)C(=O)N5CCC[C@H]5C(=O)N(C)CC(=O)N(C)[C@@H](C(C)C)C(=O)O[C@@H]4C)c3nc-2c(C(=O)N[C@@H]2C(=O)N[C@H](C(C)C)C(=O)N3CCC[C@H]3C(=O)N(C)CC(=O)N(C)[C@@H](C(C)C)C(=O)O[C@@H]2C)c(N)c1=O [actinomycin D] (I: T[dV]P[Sar][NMeV] / II: T[dV]P[Sar][NMeV]; ester I:1-I:C, II:1-II:C; linker I:N-II:N via Actinocin(9to1))",dexamethasone was able to induce apoptosis,
C[C@@H]1C[C@@H]([C@H](O)CC2CC(=O)NC(=O)C2)C(=O)[C@@H](C)C1 [cycloheximide],dexamethasone was able to induce apoptosis,
C/C=C(/C)C(=O)O[C@H]1C(C)=C2[C@H]([C@@H]1OC(=O)CCCCCCC)[C@@](C)(OC(C)=O)C[C@H](OC(=O)CCC)[C@@]1(O)[C@H]2OC(=O)[C@@]1(C)O [thapsigargin],had no effect,
Asp-Glu-Val-Asp-aldehide (DEVD-aldehyde),abolished,effect on dexamethasone-induced changes in cell attachment (MLO-Y4 osteocytic cells [2]; inhibitor added 30 minute before dexamethasone 10^−6 M): did not reverse
COc1cc([C@@H]2c3cc4c(cc3[C@@H](O[C@@H]3O[C@@H]5CO[C@@H](C)O[C@H]5[C@H](O)[C@H]3O)[C@H]3COC(=O)[C@H]23)OCO4)cc(OC)c1O [etoposide],,"number of cells exhibiting three or less cytoplasmic processes (cell attachment) (MLO-Y4 osteocytic cells [2]; dexamethasone: as early as after 1 h, etoposide: duration of the experiment): did not exhibit changes in cell attachment; apoptosis (nuclear fragmentation and chromatin condensation) (MLO-Y4 osteocytic cells [1]; 6 hours of treatment, dexamethasone 10^−6 M, etoposide 50 μM): induced apoptosis; apoptosis in cells overexpressing FAK (MLO-Y4 osteocytic cells [1]; transient transfection wild type FAK, 6 hours): not protected; apoptosis in cells overexpressing Pyk2 (MLO-Y4 osteocytic cells [1]; transient transfection wild type Pyk2, 6 hours): remained responsive; apoptosis in cells transfected with wild type Pyk2 vector (MLO-Y4 osteocytic cells [1]; transient transfection, co-transfected nGFP, 6 hours): exhibited apoptosis"
CC(=O)OCOC(=O)CN(CC(=O)OCOC(C)=O)c1ccccc1OCCOc1ccccc1N(CC(=O)OCOC(C)=O)CC(=O)OCOC(C)=O [BAPTA-AM],abolished,
